Test results reported in patent US8097443B2, “Nucleotidyltransferases with enhanced nucleotide triphosphate flexibility” (priority 2007, dated 2012).
Read-outs that look alike come from different tables or passages of the source.

What was measured:
RmlA Q83S [1] = biological target: T1, RmlA Q83S (Salmonella typhimurium, UniProt P26393, Q83S); test: Relative activity of RmlA mutant Q83S with alternative NTPs; assay type: biochemical, Salmonella enterica typhimurium LT2; conditions: 10 mM Glucose-1-phosphate, 0.1-10 μM enzyme, 5 mM NTP, 10 mM MgCl2, pH 8.0, 37° C.
T1 construct: His6 (pET28a) (N); made in house; host or cells: Escherichia coli BL21 (DE3)
Text: (§1) RmlA mutagenesis—RmlA mutants were generated with the Quikchange mutagenesis kit (Stratagene, La Jolla, Calif., USA) using the wt RmlA-pET28a parent expression plasmid as the template and the primers indicated in Table 1. Individual progeny plasmids were confirmed by DNA sequencing to carry the desired mutations. Driven by these mutant plasmids, the corresponding RmlA variants were subsequently expressed and purified as described above.
(§2) Enzymatic Reactions—The enzyme assay was accomplished via slight modification of previously reported methods (Jiang et al. (2000) J. Am. Chem. Soc. 122, 6803-6804; Jiang et al. (2001) Angew. Chem., Int. Ed. 40, 1502-1505; Jiang et al. (2003) Chem Bio Chem 4, 443-446; Barton et al. (2002) Proc. Natl. Acad. Sci. U.S.A. 99, 13397-13402). In a typical reaction, sugar-1-phosphate (10 mM final) and enzyme (0.01-50 μM) were mixed with NTP (0.01-40 mM) in the presence of MgCl2 ([NTP]+5 mM) and 10 U/mL inorganic pyrophosphatase (Sigma, St. Louis, Mo., USA) in 100 mM Tris HCl, pH 8.0 (20 μL final volume). Typical reactions were analyzed after 10 min at 37° C. and reaction times were extended for some slow reacting sugar/NTP combinations. Reactions were stopped by the addition of 80 μL prewarmed HPLC buffer and heat inactivation (95° C., 5 min). The amount of enzyme used and the incubation time was adjusted so that the reactions never proceeded to more than 10% turnover for kinetics, or 30% for activity assays.
(§3) Product Characterization—Reactions were analyzed via analytical HPLC (Supelcosil LC18-T; Supelco, Bellefonte, Pa.; 5 μm, 250×3 mm, 40 mM phosphoric acid, pH 6.5 with triethylamine, with a gradient of 0-10% MeOH over 20 min, 0.8 mL/min, A254). Due to earlier elution, a 5 min 0% MeOH isocratic hold was performed prior to starting the gradient for CTP-containing reactions. For nucleotide sugar products with commercially available standards, HPLC peak identity was confirmed by co-elution.

[2] = system: UDP-sugar pyrophosphorylase (Usp); conditions: Thermus caldophilus Usp, literature; cited from earlier work
ST0452 = ST0452 (Sulfurisphaera tokodaii, UniProt Q975F9); conditions: Sulfolobus tokodaii ST0452, literature; cited from earlier work
RmlA Q83N = biological target: T2, RmlA Q83N (Salmonella typhimurium, UniProt P26393, Q83N); test: Relative activity of RmlA mutant Q83N with alternative NTPs; assay type: biochemical, Salmonella enterica typhimurium LT2; conditions: 10 mM Glucose-1-phosphate, 0.1-10 μM enzyme, 5 mM NTP, 10 mM MgCl2, pH 8.0, 37° C.
T2 construct: His6 (pET28a) (N); made in house; host or cells: Escherichia coli BL21 (DE3)
Text: as §1, §2, §3

RmlA Q83A = biological target: T3, RmlA Q83A (Salmonella typhimurium, UniProt P26393, Q83A); test: Relative activity of RmlA mutant Q83A with alternative NTPs; assay type: biochemical, Salmonella enterica typhimurium LT2; conditions: 10 mM Glucose-1-phosphate, 0.1-10 μM enzyme, 5 mM NTP, 10 mM MgCl2, pH 8.0, 37° C.
T3 construct: His6 (pET28a) (N); made in house; host or cells: Escherichia coli BL21 (DE3)
Text: as §1, §2, §3

RmlA Q83D [3] = biological target: T4, RmlA Q83D (Salmonella typhimurium, UniProt P26393, Q83D); test: Relative activity of RmlA mutant Q83D with alternative NTPs; assay type: biochemical, Salmonella enterica typhimurium LT2; conditions: 10 mM Glucose-1-phosphate, 0.1-10 μM enzyme, 5 mM NTP, 10 mM MgCl2, pH 8.0, 37° C.
T4 construct: using BSA as a standard, and a molecular mass of 34.6 kDa; His6 (pET28a) (N); made in house; host or cells: Escherichia coli BL21 (DE3)
Text: as §1, §2, §3

RmlA Q83E = biological target: T5, RmlA Q83E (Salmonella typhimurium, UniProt P26393, Q83E); test: Relative activity of RmlA mutant Q83E with alternative NTPs; assay type: biochemical, Salmonella enterica typhimurium LT2; conditions: 10 mM Glucose-1-phosphate, 0.1-10 μM enzyme, 5 mM NTP, 10 mM MgCl2, pH 8.0, 37° C.
T5 construct: His6 (pET28a) (N); made in house; host or cells: Escherichia coli BL21 (DE3)
Text: as §1, §2, §3

[4] = biological target: wt RmlA (glucose-1-phosphate thymidylyltransferase) (Salmonella typhimurium, UniProt P26393)
Description: as §2
(§4) Product Characterization—Reactions were analyzed via analytical HPLC (Supelcosil LC18-T; Supelco, Bellefonte, Pa.; 5 μm, 250×3 mm, 40 mM phosphoric acid, pH 6.5 with triethylamine, with a gradient of 0-10% MeOH over 20 min, 0.8 mL/min, A254). Due to earlier elution, a 5 min 0% MeOH isocratic hold was performed prior to starting the gradient for CTP-containing reactions.
(§5) Kinetic Measurements—Pseudo first order kinetics were obtained by fixing glucose-1-phosphate at a saturating concentration of 10 mM (Barton et al. (2001) Nat Struct Biol 8, 545-551), and titrating NTPs. At least eight different concentrations in the range of ¼×KM to 4×KM (0.09-20 mM for dTTP, 0.2-40 mM for others) were assayed in triplicate. […] Activities were corrected for time and enzyme concentrations, and the kinetic curves were fit to the Michaelis-Menton equation using SigmaPlot with the Enzyme Kinetics module (SPSS, Chicago, Ill., USA).

RmlA Q83D [5] = biological target: T4, RmlA Q83D; test: Pseudo first order kinetics of RmlA Q83D mutant; assay type: biochemical, Salmonella enterica typhimurium LT2; conditions: for kcat^app / Km: 10 mM glucose-1-phosphate, 0.05-25 μM enzyme, [NTP] + 5 mM MgCl2, 100 mM Tris-HCl pH 8.0, 37° C.; for Km: read-out: KM^app
Text: (§6) Driven by these mutant plasmids, the corresponding RmlA variants were subsequently expressed and purified as described above.
as §2, §4, §5

RmlA Q83S [6] = biological target: T1, RmlA Q83S; test: Pseudo first order kinetics of RmlA Q83S mutant; assay type: biochemical, Salmonella enterica typhimurium LT2; conditions: 10 mM glucose-1-phosphate, 0.05-25 μM enzyme, [NTP] + 5 mM MgCl2, 100 mM Tris-HCl pH 8.0, 37° C.; for Km: read-out: KM^app
Text: as §6, §2, §4, §5

T1 sequence (P26393 whole entry Q83S): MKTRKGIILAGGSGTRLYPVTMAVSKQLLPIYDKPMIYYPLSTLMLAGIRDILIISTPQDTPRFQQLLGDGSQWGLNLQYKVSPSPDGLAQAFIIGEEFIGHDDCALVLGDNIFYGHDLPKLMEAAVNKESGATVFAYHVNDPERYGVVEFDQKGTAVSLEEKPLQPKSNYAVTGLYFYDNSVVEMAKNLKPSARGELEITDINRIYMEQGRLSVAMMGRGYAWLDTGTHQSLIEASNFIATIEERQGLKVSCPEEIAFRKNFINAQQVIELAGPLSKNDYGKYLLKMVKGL
T3 sequence (P26393 whole entry Q83A): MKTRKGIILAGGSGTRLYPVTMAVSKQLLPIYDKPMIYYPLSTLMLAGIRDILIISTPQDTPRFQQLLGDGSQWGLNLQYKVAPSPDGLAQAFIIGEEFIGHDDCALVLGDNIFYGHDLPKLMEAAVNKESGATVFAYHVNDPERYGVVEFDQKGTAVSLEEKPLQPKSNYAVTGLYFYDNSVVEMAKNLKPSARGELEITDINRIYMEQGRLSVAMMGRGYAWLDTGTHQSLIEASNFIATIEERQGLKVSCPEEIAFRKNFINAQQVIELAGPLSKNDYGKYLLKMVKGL
T2 sequence (P26393 whole entry Q83N): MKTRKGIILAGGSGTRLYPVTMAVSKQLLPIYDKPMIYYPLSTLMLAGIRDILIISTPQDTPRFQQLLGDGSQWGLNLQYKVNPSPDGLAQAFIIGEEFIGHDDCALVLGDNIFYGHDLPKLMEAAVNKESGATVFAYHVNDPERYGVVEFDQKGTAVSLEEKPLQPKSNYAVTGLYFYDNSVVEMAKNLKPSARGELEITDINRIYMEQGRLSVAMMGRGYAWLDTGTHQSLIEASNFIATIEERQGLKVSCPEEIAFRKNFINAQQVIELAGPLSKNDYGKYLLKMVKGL
T4 sequence (P26393 whole entry Q83D): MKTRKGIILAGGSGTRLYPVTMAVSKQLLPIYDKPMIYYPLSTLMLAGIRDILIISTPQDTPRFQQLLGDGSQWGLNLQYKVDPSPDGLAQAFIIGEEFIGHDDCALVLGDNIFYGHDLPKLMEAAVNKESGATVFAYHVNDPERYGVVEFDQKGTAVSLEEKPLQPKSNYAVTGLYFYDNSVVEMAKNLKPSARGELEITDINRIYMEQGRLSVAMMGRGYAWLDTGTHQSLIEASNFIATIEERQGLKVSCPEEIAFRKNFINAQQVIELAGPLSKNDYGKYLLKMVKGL
T5 sequence (P26393 whole entry Q83E): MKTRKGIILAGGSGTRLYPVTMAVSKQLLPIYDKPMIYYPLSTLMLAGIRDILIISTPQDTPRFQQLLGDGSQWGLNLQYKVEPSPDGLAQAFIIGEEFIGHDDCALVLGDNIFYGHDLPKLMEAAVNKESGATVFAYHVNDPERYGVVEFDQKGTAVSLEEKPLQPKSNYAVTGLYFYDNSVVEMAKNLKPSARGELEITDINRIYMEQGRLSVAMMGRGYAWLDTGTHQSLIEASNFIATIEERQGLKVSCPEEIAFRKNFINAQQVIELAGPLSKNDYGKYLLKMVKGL
Chain of ST0452 (Q975F9 whole entry): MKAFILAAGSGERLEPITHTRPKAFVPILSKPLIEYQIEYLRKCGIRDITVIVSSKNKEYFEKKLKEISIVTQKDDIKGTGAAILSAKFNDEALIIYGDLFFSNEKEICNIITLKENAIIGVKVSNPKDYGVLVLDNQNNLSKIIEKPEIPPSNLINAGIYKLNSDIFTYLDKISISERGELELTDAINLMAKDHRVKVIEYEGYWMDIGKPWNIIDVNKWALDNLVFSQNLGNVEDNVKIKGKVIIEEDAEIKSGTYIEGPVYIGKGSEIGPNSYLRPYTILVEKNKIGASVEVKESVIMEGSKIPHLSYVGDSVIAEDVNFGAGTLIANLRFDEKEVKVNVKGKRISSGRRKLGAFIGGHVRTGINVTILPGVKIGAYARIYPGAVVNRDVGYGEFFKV
Chain of wt RmlA (glucose-1-phosphate thymidylyltransferase) (P26393 whole entry): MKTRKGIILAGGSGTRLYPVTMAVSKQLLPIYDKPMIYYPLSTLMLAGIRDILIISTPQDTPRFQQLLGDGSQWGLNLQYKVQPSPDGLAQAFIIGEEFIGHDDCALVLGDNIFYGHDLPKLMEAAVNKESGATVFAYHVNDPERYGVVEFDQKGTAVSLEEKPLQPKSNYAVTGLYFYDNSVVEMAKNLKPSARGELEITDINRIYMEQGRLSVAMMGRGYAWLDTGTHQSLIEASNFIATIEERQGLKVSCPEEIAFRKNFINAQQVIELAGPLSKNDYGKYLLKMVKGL

| Structure (SMILES) | Relative activity of Q83S as compared to wt RmlA (RmlA Q83S [1]) | turnover of glucose-1-phosphate with NTP by Usp [2] | utilization of NTP by ST0452 (ST0452) | Relative activity of Q83N as compared to wt RmlA (RmlA Q83N) | Relative activity of Q83A as compared to wt RmlA (RmlA Q83A) | Relative activity of Q83D as compared to wt RmlA (RmlA Q83D [3]) | Relative activity of Q83E as compared to wt RmlA (RmlA Q83E) | reduction in the apparent RmlA specificity constant (kcat/KM) versus dTTP ([4]; wild-type RmlA, glucose-1-phosphate) [fold] | improvement in apparent KM, Q83D versus wild-type (RmlA Q83D [5]) [fold] | kcat^app (RmlA Q83D [5]) [s⁻¹] | Km (RmlA Q83D [5]) [µM] | kcat^app (RmlA Q83S [6]) [s⁻¹] | Km (RmlA Q83S [6]) [µM] | reduction in the apparent RmlA specificity constant (kcat/KM) versus dTTP [4] | increase in KM, Q83D versus wild-type (RmlA Q83D [5]) [fold] | kcat^app ([4]; Wild-type RmlA, 10 mM glucose-1-phosphate, 0.05-25 μM enzyme, [NTP] + 5 mM MgCl2, 100 mM Tris-HCl pH 8.0, 37° C.) [s⁻¹] | Km ([4]; read-out: KM^app, Wild-type RmlA, 10 mM glucose-1-phosphate, 0.05-25 μM enzyme, [NTP] + 5 mM MgCl2, 100 mM Tris-HCl pH 8.0, 37° C.) [µM] |
| --- | --- | --- | --- | --- | --- | --- | --- | --- | --- | --- | --- | --- | --- | --- | --- | --- | --- |
| O=c1ccn([C@@H]2O[C@H](COP(=O)(O)OP(=O)(O)OP(=O)(O)O)[C@@H](O)[C@H]2O)c(=O)[nH]1 [UTP, uridine-5′-triphosphate] | 0.2 | turn over | good activity | 0.2 | 0.2 | 0.2 | 1.3 | ~12 | – | – | – | – | – | – | – | – | – |
| Nc1nc2c(ncn2[C@@H]2O[C@H](COP(=O)(O)OP(=O)(O)OP(=O)(O)O)[C@@H](O)[C@H]2O)c(=O)[nH]1 [GTP, guanosine-5′-triphosphate] | 2.2 | turn over | could not utilize | 0.2 | 0.7 | 3.7 | 2.8 | – | 6.5 | 0.213 ± 0.015 | 1300 ± 400 | – | – | – | – | – | – |
| Nc1nc2c(ncn2[C@H]2C[C@H](O)[C@@H](COP(=O)(O)OP(=O)(O)OP(=O)(O)O)O2)c(=O)[nH]1 [dGTP, 2′-deoxyguanosine-5′-triphosphate] | 0.6 | – | good activity | 0.1 | 0.2 | 1.6 | 1.7 | – | – | 5 ± 0.333 | 11500 ± 1800 | – | – | – | – | – | – |
| Nc1ncnc2c1ncn2[C@@H]1O[C@H](COP(=O)(O)OP(=O)(O)OP(=O)(O)O)[C@@H](O)[C@H]1O [ATP, adenosine-5′-triphosphate] | 14.0 | turn over | could not utilize | 6.5 | 7.9 | 0.6 | 0.7 | – | – | – | – | 0.48 ± 0.0233 | 3400 ± 600 | > 15,000 fold | – | – | – |
| Nc1ncnc2c1ncn2[C@H]1C[C@H](O)[C@@H](COP(=O)(O)OP(=O)(O)OP(=O)(O)O)O1 [dATP, 2′-deoxyadenosine-5′-triphosphate] | 7.9 | – | good activity | 3.8 | 4.6 | 0.8 | 0.4 | – | – | – | – | 5.33 ± 0.333 | 1100 ± 300 | – | – | – | – |
| Cc1cn([C@H]2C[C@H](O)[C@@H](COP(=O)(O)OP(=O)(O)OP(=O)(O)O)O2)c(=O)[nH]c1=O [dTTP, 2′deoxythymidine-5′-triphosphate] | 0.3 | turn over | good activity | 0.3 | 0.2 | 0.2 | 1.0 | – | – | 3.62 ± 0.233 | 6200 ± 1200 | 6.33 ± 0.5 | 2400 ± 600 | – | 21 | 30.83 ± 0.667 | 290 ± 40 |
| Nc1ccn([C@H]2C[C@H](O)[C@@H](COP(=O)(O)OP(=O)(O)OP(=O)(O)O)O2)c(=O)n1 [dCTP, 2′-deoxycytidine-5′-triphosphate] | 1.4 | – | good activity | – | 0.8 | 1.2 | 1.1 | – | – | – | – | – | – | – | – | – | – |
| Nc1ccn([C@@H]2O[C@H](COP(=O)(O)OP(=O)(O)OP(=O)(O)O)[C@@H](O)[C@H]2O)c(=O)n1 [CTP, cytidine-5′-triphosphate] | 1.5 | turn over | could not utilize | 0.7 | 1.3 | 0.2 | 0.8 | – | – | – | – | – | – | – | – | – | – |
